Results published in patent publication US7338950B2, “Amide compounds as ion channel ligands and uses thereof” (Renovis, Inc., priority 2003, dated 2008).
pIC50: −log10 of the molar value.

What was measured:
CYP2C19 = CYP2C19 (Homo sapiens, UniProt P33261); experiment: Cytochrome p450 inhibition assessment, CYP2C19; type: biochemical; settings: estimated, Hill equation fit
Procedure: (§1) The ability of test compounds to inhibit five major human cytochrome p450 isozymes was evaluated. Cytochrome p450 inhibition assays were performed on 96-well microtiter assay plates according to the protocols described in Gentest P450 inhibition instruction manuals. The assays were performed in duplicate at 8 concentrations with the upper concentration of 100 μM followed by a 1:3 serial dilution. Reactions were initiated by the addition of 100 μL of enzyme/substrate mix to 100 μL of cofactor/serial dilution mix, and terminated by addition of 75 μL of a 4:1 acentonitrile: 0.5 M Tris base solution or by 2N NaOH for CYP3A4/DBF. Fluorescence was measured using a fluorescence plate reader (FLUOstar model 403, BMG Lab Technologies, Durham, N.C.). For reactions with inhibition greater than 50%, IC50 values were determined by fitting the data to the Hill equation using software GraphPad Prism (Version 4.02, GraphPad Software, San Diego, Calif.).

[1] = biological target: T1, VR1 receptor (capsaicin induced current in dorsal root ganglion (DRG) neurons) (Rattus norvegicus, UniProt O35433); experiment: Whole-cell patch clamp electrophysiology, capsaicin induced current in DRG neurons; type: cell-based
T1 construct: Dorsal root ganglion (DRG) neurons were recovered from either neonatal or adult rats; endogenous in cells; host or cells: primary rat dorsal root ganglion neurons
Procedure: Dorsal root ganglion (DRG) neurons were recovered from either neonatal or adult rats and plated onto poly-D-lysine coated glass coverslips. The plated neurons were transferred into a chamber to allow drug solutions to be added to the cells using a computer-controlled solenoid-valve based perfusion system. The cells were imaged using standard DIC optics. Cells were patched using finely-pulled glass electrodes. Voltage-clamp electrophysiology experiments were carried out using an Axon Instruments Multiclamp amplified controlled by pCLAMP8 software.
The cells were placed into a whole-cell voltage clamp and help at a voltage of −80 mV while monitoring the membrane current in gap-free recording mode. 500 nM capsaicin was added for 30 seconds as a control. Test compounds at various concentrations at ranging from (10-1000 nM) were added to the cells for 1 minute prior to a 30 second capsaicin application. Differences between control experiments and drug positive capsaicin experiments were used to determine the efficacy of each test compound. All compounds that inhibited capsaicin induced current greater than 50% were considered positives.

[2] = Pharmacokinetic profile after intravenous and oral administration; type: in vivo; settings: male, Sprague-Dawley, rat, plasma, rats
Procedure: The pharmacokinetic profile of Compound 18 was evaluated following intravenous and oral administration in rats. Sprague-Dawley male rats obtained from Charles River, San Diego, Calif. were acclimated for 24 hours.
Compound 18 was formulated at a concentration of 0.5 mg/mL for IV administration at a 1 mg/kg dose and 1 mg/mL for oral administration at a 5 mg/kg dose. All animals were weighed before dosing. The body weight was used to calculate the actual dose for each animal. The intravenous dose was administered through the jugular vein catheter in less than 1 minute. The oral dose volume was 1.5 mL for all PO rats administered through oral lavage.
For IV dosing, blood samples were collected using a pre-heparinized syringe via the carotid artery catheter before dosing and at t=2, 5, 15, 30, 60, 120, 180, 360, and 480 minutes post dosing. For PO dosing, blood samples were collected using a pre-heparinized syringe via the carotid artery catheter before dosing and at t=5, 15, 30, 60, 120, 180, 360, and 480 minutes post dosing. 250 uL of blood was obtained at each time point from each animal. Equal volumes of 0.9% normal saline were replaced to prevent dehydration. The whole blood samples were maintained on ice until centrifugation. Blood samples were centrifuged at 14,000 rpm for 10 minutes at 4° C., and the upper plasma layer was transferred into a clean vial and store at −80° C.

[3] = Plasma protein binding, equilibrium dialysis, human plasma; type: in vitro ADME; settings: human plasma (sodium citrate), pH 7.4, 37° C., at least 22 hours, read-out: human plasma protein binding (% Bound)
Procedure: Membranes from Harvard/Amika with a molecular weight cutoff of 5,000 were rinsed with dH2O then placed in pH 7.4 PBS supplied by Gibco. The membranes were allowed to soak for 1 hour. A stock of the test article was pooled with Warfarin, Atropine at 2 mM in DMSO. The test article was then dosed into human plasma in sodium citrate, Rat Plasma, and Mouse Plasma to a final 10 μM concentration (0.5% DMSO v/v). The pre-soaked membranes were then placed into dialysis chambers. 500 μL of PBS was added to one side of the chamber, and 500 μL of the Matrix containing the test article was added to the other side of the chamber.
The chambers were then placed into an enclosed, heated rocker, which was pre-warmed to 37° C. and allowed to reach equilibrium for at least 22 hours. After 22 hours both sides were sampled. 100 μL of the donor side was added to 500 μL of PBS. 100 μL of the PBS side was added to 20 μL of fresh matrix. Samples then were crashed with 1:1 Acetonitrile and centrifuged at 10,000 RPM for 10 minutes. […]
Standards were prepared in a 1:5 plasma: PBS mixture at 5, 1.5, 0.5, 0.15, 0.05, 0.015 and 0.005 μM concentrations. […] Protein binding values were calculated as follows: % Bound=[(Concentration in Donor−Concentration in Receiver)/(Concentration in Donor)]×100. % Recovery=[(Concentration in donor+Concentration in Receiver)]/(Concentration in Normal Initial)]×100

CYP1A2 = biological target: T2, CYP1A2 (Homo sapiens, UniProt P05177); experiment: Cytochrome p450 inhibition assessment, CYP1A2; type: biochemical; settings: estimated, Hill equation fit
T2 sequence (P05177 1-516): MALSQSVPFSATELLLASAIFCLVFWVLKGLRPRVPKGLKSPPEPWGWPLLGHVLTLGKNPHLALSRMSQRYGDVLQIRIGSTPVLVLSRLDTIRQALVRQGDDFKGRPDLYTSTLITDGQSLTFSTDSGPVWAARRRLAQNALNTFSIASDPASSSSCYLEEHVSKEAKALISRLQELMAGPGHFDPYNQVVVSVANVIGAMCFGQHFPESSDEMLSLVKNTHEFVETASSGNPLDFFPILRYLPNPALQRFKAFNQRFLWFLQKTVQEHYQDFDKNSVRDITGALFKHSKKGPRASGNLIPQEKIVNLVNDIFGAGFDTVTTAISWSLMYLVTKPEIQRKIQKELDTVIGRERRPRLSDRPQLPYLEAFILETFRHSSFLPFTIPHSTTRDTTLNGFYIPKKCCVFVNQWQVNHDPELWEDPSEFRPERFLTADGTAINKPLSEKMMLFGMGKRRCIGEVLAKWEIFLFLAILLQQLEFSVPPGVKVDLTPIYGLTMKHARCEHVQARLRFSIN
Procedure: as §1

[4] = test system: VR1 receptor (293 cells expressing capsaicin-insensitive VR1 receptor variants); experiment: High throughput screening of VR1 antagonists using a calcium imaging assay (Fura2, pH 5.1 stimulus); settings: 1 uM compound; inhibition of calcium ion influx;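 also: Fura2 ratiometric fluorescence read every 4 s over 3 min, response taken as peak ratio minus baseline before pre-treatment, compound pre-treatment preceding acid challenge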
Text: A dual wavelength ratiometric dye, Fura2, was used as an indicator of relative levels of calcium ions in a 96 well format using a bench top scanning fluorometer with integrated fluidics and temperature control (Flex Station, Molecular Devices).
A dual wavelength ratiometric dye, Fura2, was used as an indicator of relative levels of [Ca2+] in a 96 well format using a bench top scanning fluorometer with integrated fluidics and temperature control (Flex Station, Molecular Devices).
293 cells were grown on PDL coated 96-well black-walled plates, in the presence of a DMEM medium containing 5% Penstrep, 5% Glutamax, 200 ug/mL Hygromycin, 5 μg/mL Blasticide and 10% heat inactivated FBS. Prior to assay, the cells were loaded with 5 μg/mL Fura2 in normal saline solution at 37° C. for 40 minutes. Cells were then washed with normal saline to remove the dye.
The assay consists of two stages; a pre-treatment phase followed by a treatment phase.
50 μl of a compound solution was added to the cells (Pre-treatment). Immediately following, 50 μl of the test compound in a saline solution at pH 5.1 was added. […] Changes in wavelength measurements were made throughout the course of the experiment in 4 second intervals over a period of 3 minutes. Responses were measured as peak fluorescence ratio after test compound addition minus baseline fluorescence ratio prior to pre-treatment and were calculated using SoftMaxPro softwareData were expressed as percentage inhibition calculated using Excel as follows:

[5] = route not stated (IV 1 mg/kg, PO 5 mg/kg)

T1 sequence (O35433 whole entry): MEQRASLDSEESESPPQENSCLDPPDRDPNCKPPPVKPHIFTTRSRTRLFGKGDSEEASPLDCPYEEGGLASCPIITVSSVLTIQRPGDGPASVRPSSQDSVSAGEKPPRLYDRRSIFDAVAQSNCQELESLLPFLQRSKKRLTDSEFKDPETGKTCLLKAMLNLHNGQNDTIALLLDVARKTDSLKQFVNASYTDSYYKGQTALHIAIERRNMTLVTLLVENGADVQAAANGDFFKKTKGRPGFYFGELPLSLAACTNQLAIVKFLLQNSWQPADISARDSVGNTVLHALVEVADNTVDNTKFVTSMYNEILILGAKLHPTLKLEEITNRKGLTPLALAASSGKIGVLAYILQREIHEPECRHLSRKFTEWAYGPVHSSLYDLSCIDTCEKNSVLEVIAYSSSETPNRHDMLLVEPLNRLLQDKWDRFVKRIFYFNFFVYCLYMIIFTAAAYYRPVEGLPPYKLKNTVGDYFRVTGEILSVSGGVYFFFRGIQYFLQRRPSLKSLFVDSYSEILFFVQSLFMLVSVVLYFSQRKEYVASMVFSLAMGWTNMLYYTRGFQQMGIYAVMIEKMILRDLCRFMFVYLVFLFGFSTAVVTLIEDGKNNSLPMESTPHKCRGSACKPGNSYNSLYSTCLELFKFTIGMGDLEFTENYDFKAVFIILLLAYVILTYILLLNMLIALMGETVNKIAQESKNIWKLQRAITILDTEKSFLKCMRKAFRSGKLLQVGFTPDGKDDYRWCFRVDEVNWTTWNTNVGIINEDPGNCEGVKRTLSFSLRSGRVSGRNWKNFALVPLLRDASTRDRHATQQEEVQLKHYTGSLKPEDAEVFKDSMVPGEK
CYP2C19, sequence (P33261 whole entry): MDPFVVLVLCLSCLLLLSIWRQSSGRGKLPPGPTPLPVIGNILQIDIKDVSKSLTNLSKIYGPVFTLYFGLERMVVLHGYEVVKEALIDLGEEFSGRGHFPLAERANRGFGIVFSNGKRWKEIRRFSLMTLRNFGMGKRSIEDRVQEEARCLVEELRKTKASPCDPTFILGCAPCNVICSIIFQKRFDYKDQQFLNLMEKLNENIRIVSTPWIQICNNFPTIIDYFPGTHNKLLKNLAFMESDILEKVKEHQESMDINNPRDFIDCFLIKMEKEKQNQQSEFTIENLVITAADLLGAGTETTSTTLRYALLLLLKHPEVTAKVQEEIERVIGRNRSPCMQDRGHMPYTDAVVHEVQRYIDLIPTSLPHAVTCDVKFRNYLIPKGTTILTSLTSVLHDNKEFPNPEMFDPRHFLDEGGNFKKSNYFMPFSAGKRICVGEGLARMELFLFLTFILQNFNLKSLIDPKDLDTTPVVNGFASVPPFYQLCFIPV

Row | Structure (SMILES) | % Inhibition @ 1 uM [4] | also measured
1 | COc1ccc(CCNC(=O)c2ccc(-c3ncccc3Cl)cc2)cc1OC [Compound 18] |  | pIC50 (CYP2C19): 4.57; inhibition at 0.1 µM ([1]; DRG neuron, 100 nM, treatment time 20 seconds, 500 nM capsaicin, rat DRG neurons): < 75%; bioavailability ([2]; PO 5 mg/kg vs IV 1 mg/kg, read-out: Oral Bioavailability (% F)): 30.1%; Cmax [2, 5]: 1750 nM; Tmax [2, 5]: 3 h; clearance ([2]; route not stated (IV 1 mg/kg, PO 5 mg/kg), read-out: Clearance (Cl) (converted)): 8.83 mL/min/kg; Vd ([2]; route not stated (IV 1 mg/kg, PO 5 mg/kg), read-out: Volume of distribution (Vd)): 2.82 L/kg; half-life ([2]; route not stated (IV 1 mg/kg, PO 5 mg/kg), read-out: half life (t½) (converted)): 3.71 h; fraction unbound at 22 h, 10 µM [3]: < 0.002; pIC50 (CYP1A2): 4.01
2 | O=C(NCc1ccc(Cl)c(Cl)c1)c1ccc(-c2ncccc2Cl)cc1 [Compound 24] |  | dose response of inhibiting a capsaicin induced calcium ion influx (FIG. 4) ([1]; 20 nM, 40 nM, 100 nM and 200 nM): increasing effectiveness; inhibition at 0.2 µM ([1]; DRG neuron, 200 nM, treatment time 25 seconds, 500 nM capsaicin, rat DRG neurons): 100%
3 | O=C(Nc1ccc(N2CCOCC2)cc1)c1ccc(-c2ncccc2Cl)cn1 [Compound 1334] | + (compound exhibited 0-25% inhibition of calcium ion influx induced by capsaicin stimulation) | 
4 | Cc1ccnc(NC(=O)c2ccc(-c3ncccc3Cl)cn2)c1 [Compound 1335] | + (compound exhibited 0-25% inhibition of calcium ion influx induced by capsaicin stimulation) | 
5 | O=C(Nc1ccncn1)c1ccc(-c2ncccc2Cl)cn1 [Compound 1336] | ++++ (compound exhibited 75% or greater inhibition of calcium ion influx induced by capsaicin stimulation) | 
6 | COc1ccc(NC(=O)c2ccc(-c3ncccc3Cl)cn2)cn1 [Compound 1341] | ++ (compound exhibited 25-50% inhibition of calcium ion influx induced by capsaicin stimulation) | 
7 | O=C(Nc1ccnc(Cl)c1)c1ccc(-c2ncccc2Cl)cn1 [Compound 1342] | + (compound exhibited 0-25% inhibition of calcium ion influx induced by capsaicin stimulation) | 
8 | Cc1cc(NC(=O)c2ccc(-c3ncccc3Cl)cn2)nc(C)n1 [Compound 1343] | + (compound exhibited 0-25% inhibition of calcium ion influx induced by capsaicin stimulation) | 
9 | O=C(Nc1ccc2ncccc2c1)c1ccc(-c2ncccc2Cl)cn1 [Compound 1344] | + (compound exhibited 0-25% inhibition of calcium ion influx induced by capsaicin stimulation) | 
10 | CCn1c2ccccc2c2cc(NC(=O)c3ccc(-c4ncccc4Cl)cn3)ccc21 [Compound 1345] | ++++ (compound exhibited 75% or greater inhibition of calcium ion influx induced by capsaicin stimulation) | 
11 | O=C(Nc1ccc2ccccc2c1)c1ccc(-c2ncccc2Cl)cn1 [Compound 1348] | ++ (compound exhibited 25-50% inhibition of calcium ion influx induced by capsaicin stimulation) | 
12 | O=C(Nc1ccc(OCc2ccccc2)cc1)c1ccc(-c2ncccc2Cl)cn1 [Compound 1349] | + (compound exhibited 0-25% inhibition of calcium ion influx induced by capsaicin stimulation) | 
13 | CCOC(=O)c1ccc(NC(=O)c2ccc(-c3ncccc3Cl)cn2)cc1 [Compound 1350] | + (compound exhibited 0-25% inhibition of calcium ion influx induced by capsaicin stimulation) | 
14 | COc1ccc(NC(=O)c2ccc(-c3ncccc3Cl)cn2)cc1O [Compound 1355] | ++ (compound exhibited 25-50% inhibition of calcium ion influx induced by capsaicin stimulation) | 
15 | COc1cc(NC(=O)c2ccc(-c3ncccc3Cl)cn2)cc(OC)c1OC [Compound 1356] | + (compound exhibited 0-25% inhibition of calcium ion influx induced by capsaicin stimulation) | 
16 | O=C(Nc1ccc2cn[nH]c2c1)c1ccc(-c2ncccc2Cl)cn1 [Compound 1357] | ++++ (compound exhibited 75% or greater inhibition of calcium ion influx induced by capsaicin stimulation) | 
17 | CCCOc1ccc(NC(=O)c2ccc(-c3ncccc3Cl)cn2)cc1 [Compound 1358] | + (compound exhibited 0-25% inhibition of calcium ion influx induced by capsaicin stimulation) | 
18 | O=C(Nc1ccc(OC(F)(F)F)cc1)c1ccc(-c2ncccc2Cl)cn1 [Compound 1360] | + (compound exhibited 0-25% inhibition of calcium ion influx induced by capsaicin stimulation) | 
19 | O=C(Nc1cccc(OC(F)(F)F)c1)c1ccc(-c2ncccc2Cl)cn1 [Compound 1361] | ++ (compound exhibited 25-50% inhibition of calcium ion influx induced by capsaicin stimulation) | 
20 | CC(C)Oc1cccc(NC(=O)c2ccc(-c3ncccc3Cl)cn2)c1 [Compound 1362] | + (compound exhibited 0-25% inhibition of calcium ion influx induced by capsaicin stimulation) | 
21 | O=C(Nc1ccc(F)c(F)c1)c1ccc(-c2ncccc2Cl)cn1 [Compound 1363] | ++++ (compound exhibited 75% or greater inhibition of calcium ion influx induced by capsaicin stimulation) | 
22 | CCOc1cccc(NC(=O)c2ccc(-c3ncccc3Cl)cn2)c1 [Compound 1364] | ++++ (compound exhibited 75% or greater inhibition of calcium ion influx induced by capsaicin stimulation) | 
